Source: US4442044A, “Process for preparing monoesters and diesters of N-alkyl substituted amino methyl phosphonic acid” (priority 1983, dated 1984)

Legend:
Test in all cases: post-emergent herbicidal activity, greenhouse
Type in all cases: in vivo
Soybean = details: Table II
Method in brief: (§1)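 Seeds or propagules sown in compacted top soil, grown 2–3 weeks in greenhouse, then sprayed with compound solution/suspension containing ~0.4% emulsifier at tabulated rates. Injury scored visually versus untreated controls at ~2 and 4 weeks after treatment, expressed as a herbicidal activity index.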

Rice = details: Table II
Method in brief: as §1

Cocklebur = tested on: Cocklebur
Method in brief: as §1

Wild Buckwheat = details: Table II
Method in brief: as §1

Velvetleaf = tested on: Velvetleaf
Method in brief: as §1

Morningglory = tested on: Morningglory
Method in brief: as §1

Canada Thistle = details: Table I, 4 WAT
Method in brief: as §1

Barnyardgrass = tested on: Barnyardgrass
Method in brief: as §1

Lambsquarters = tested on: Lambsquarters
Method in brief: as §1

Johnsongrass = details: Table I, 4 WAT
Method in brief: as §1

Smartweed = tested on: Smartweed
Method in brief: as §1

Panicum Spp = details: Table II
Method in brief: as §1

Crabgrass = details: Table II
Method in brief: as §1

Wheat = details: Table II
Method in brief: as §1

Sorghum = details: Table II
Method in brief: as §1

Hemp Sesbania = details: Table II
Method in brief: as §1

Downy Brome = tested on: Downy Brome
Method in brief: as §1

Yellow Nutsedge = details: Table I, 4 WAT
Method in brief: as §1

Sugar Beet = details: Table II
Method in brief: as §1

Quackgrass = details: Table I, 4 WAT
Method in brief: as §1

CC(C#N)OP(=O)(CNCC#N)OC(C)C#N (stereo not drawn) [Example 12, phosphonic acid, [[(cyanomethyl)amino]-methyl],bis 1-cyanoethyl ester]
post-emergent herbicidal activity index (Soybean; 2 WAT, 0.28 kg/h): 0 (0-24% control)
post-emergent herbicidal activity index (Soybean; 4 WAT, 1.12 kg/h): 1 (25-49% control)
post-emergent herbicidal activity index (Soybean; 4 WAT, 5.6 kg/h): 1 (25-49% control)
post-emergent herbicidal activity index (Rice; 2 WAT, 0.28 kg/h): 0 (0-24% control)
post-emergent herbicidal activity index (Rice; 4 WAT, 1.12 kg/h): 0 (0-24% control)
post-emergent herbicidal activity index (Rice; 4 WAT, 5.6 kg/h): 2 (50-74% control)
post-emergent herbicidal activity index (Cocklebur; Table I, 4 WAT, 5.6 kg/h): 2 (50-74% control)
post-emergent herbicidal activity index (Cocklebur; Table I, 4 WAT, 11.2 kg/h): 2 (50-74% control)
post-emergent herbicidal activity index (Cocklebur; Table II, 2 WAT, 0.28 kg/h): 0 (0-24% control)
post-emergent herbicidal activity index (Cocklebur; Table II, 4 WAT, 1.12 kg/h): 1 (25-49% control)
post-emergent herbicidal activity index (Cocklebur; Table II, 4 WAT, 5.6 kg/h): 3 (75-99% control)
post-emergent herbicidal activity index (Wild Buckwheat; 2 WAT, 0.28 kg/h): 0 (0-24% control)
post-emergent herbicidal activity index (Wild Buckwheat; 4 WAT, 1.12 kg/h): 1 (25-49% control)
post-emergent herbicidal activity index (Wild Buckwheat; 4 WAT, 5.6 kg/h): 0 (0-24% control)
post-emergent herbicidal activity index (Velvetleaf; Table I, 4 WAT, 5.6 kg/h): 2 (50-74% control)
post-emergent herbicidal activity index (Velvetleaf; Table I, 4 WAT, 11.2 kg/h): 2 (50-74% control)
post-emergent herbicidal activity index (Velvetleaf; Table II, 2 WAT, 0.28 kg/h): 0 (0-24% control)
post-emergent herbicidal activity index (Velvetleaf; Table II, 4 WAT, 1.12 kg/h): 1 (25-49% control)
post-emergent herbicidal activity index (Velvetleaf; Table II, 4 WAT, 5.6 kg/h): 2 (50-74% control)
post-emergent herbicidal activity index (Morningglory; Table I, 4 WAT, 5.6 kg/h): 2 (50-74% control)
post-emergent herbicidal activity index (Morningglory; Table I, 4 WAT, 11.2 kg/h): 2 (50-74% control)
post-emergent herbicidal activity index (Morningglory; Table II, 2 WAT, 0.28 kg/h): 0 (0-24% control)
post-emergent herbicidal activity index (Morningglory; Table II, 4 WAT, 1.12 kg/h): 1 (25-49% control)
post-emergent herbicidal activity index (Canada Thistle; 5.6 kg/h): 2 (50-74% control)
post-emergent herbicidal activity index (Canada Thistle; 11.2 kg/h): 2 (50-74% control)
post-emergent herbicidal activity index (Barnyardgrass; Table I, 4 WAT, 5.6 kg/h): 2 (50-74% control)
post-emergent herbicidal activity index (Barnyardgrass; Table I, 4 WAT, 11.2 kg/h): 3 (75-99% control)
post-emergent herbicidal activity index (Barnyardgrass; Table II, 2 WAT, 0.28 kg/h): 0 (0-24% control)
post-emergent herbicidal activity index (Barnyardgrass; Table II, 4 WAT, 1.12 kg/h): 1 (25-49% control)
post-emergent herbicidal activity index (Barnyardgrass; Table II, 4 WAT, 5.6 kg/h): 3 (75-99% control)
post-emergent herbicidal activity index (Lambsquarters; Table I, 4 WAT, 5.6 kg/h): 3 (75-99% control)
post-emergent herbicidal activity index (Lambsquarters; Table I, 4 WAT, 11.2 kg/h): 2 (50-74% control)
post-emergent herbicidal activity index (Lambsquarters; Table II, 2 WAT, 0.28 kg/h): 1 (25-49% control)
post-emergent herbicidal activity index (Lambsquarters; Table II, 4 WAT, 1.12 kg/h): 2 (50-74% control)
post-emergent herbicidal activity index (Lambsquarters; Table II, 4 WAT, 5.6 kg/h): 4 (100% control)
post-emergent herbicidal activity index (Johnsongrass; 5.6 kg/h): 4 (100% control)
post-emergent herbicidal activity index (Johnsongrass; 11.2 kg/h): 3 (75-99% control)
post-emergent herbicidal activity index (Smartweed; Table I, 4 WAT, 5.6 kg/h): 4 (100% control)
post-emergent herbicidal activity index (Smartweed; Table I, 4 WAT, 11.2 kg/h): 4 (100% control)
post-emergent herbicidal activity index (Smartweed; Table II, 2 WAT, 0.28 kg/h): 0 (0-24% control)
post-emergent herbicidal activity index (Smartweed; Table II, 4 WAT, 1.12 kg/h): 0 (0-24% control)
post-emergent herbicidal activity index (Smartweed; Table II, 4 WAT, 5.6 kg/h): 2 (50-74% control)
post-emergent herbicidal activity index (Panicum Spp; 2 WAT, 0.28 kg/h): 0 (0-24% control)
post-emergent herbicidal activity index (Panicum Spp; 4 WAT, 1.12 kg/h): 0 (0-24% control)
post-emergent herbicidal activity index (Panicum Spp; 4 WAT, 5.6 kg/h): 1 (25-49% control)
post-emergent herbicidal activity index (Crabgrass; 2 WAT, 0.28 kg/h): 0 (0-24% control)
post-emergent herbicidal activity index (Crabgrass; 4 WAT, 1.12 kg/h): 2 (50-74% control)
post-emergent herbicidal activity index (Crabgrass; 4 WAT, 5.6 kg/h): 2 (50-74% control)
post-emergent herbicidal activity index (Wheat; 2 WAT, 0.28 kg/h): 0 (0-24% control)
post-emergent herbicidal activity index (Wheat; 4 WAT, 1.12 kg/h): 0 (0-24% control)
post-emergent herbicidal activity index (Wheat; 4 WAT, 5.6 kg/h): 2 (50-74% control)
post-emergent herbicidal activity index (Sorghum; 2 WAT, 0.28 kg/h): 1 (25-49% control)
post-emergent herbicidal activity index (Sorghum; 4 WAT, 1.12 kg/h): 3 (75-99% control)
post-emergent herbicidal activity index (Sorghum; 4 WAT, 5.6 kg/h): 4 (100% control)
post-emergent herbicidal activity index (Hemp Sesbania; 2 WAT, 0.28 kg/h): 0 (0-24% control)
post-emergent herbicidal activity index (Hemp Sesbania; 4 WAT, 1.12 kg/h): 0 (0-24% control)
post-emergent herbicidal activity index (Hemp Sesbania; 4 WAT, 5.6 kg/h): 0 (0-24% control)
post-emergent herbicidal activity index (Downy Brome; Table I, 4 WAT, 5.6 kg/h): 2 (50-74% control)
post-emergent herbicidal activity index (Downy Brome; Table I, 4 WAT, 11.2 kg/h): 1 (25-49% control)
post-emergent herbicidal activity index (Downy Brome; Table II, 2 WAT, 0.28 kg/h): 0 (0-24% control)
post-emergent herbicidal activity index (Downy Brome; Table II, 4 WAT, 1.12 kg/h): 0 (0-24% control)
post-emergent herbicidal activity index (Downy Brome; Table II, 4 WAT, 5.6 kg/h): 3 (75-99% control)
post-emergent herbicidal activity index (Yellow Nutsedge; 5.6 kg/h): 3 (75-99% control)
post-emergent herbicidal activity index (Yellow Nutsedge; 11.2 kg/h): 3 (75-99% control)
post-emergent herbicidal activity index (Sugar Beet; 2 WAT, 0.28 kg/h): 0 (0-24% control)
post-emergent herbicidal activity index (Sugar Beet; 4 WAT, 1.12 kg/h): 0 (0-24% control)
post-emergent herbicidal activity index (Sugar Beet; 4 WAT, 5.6 kg/h): 1 (25-49% control)
post-emergent herbicidal activity index (Quackgrass; 5.6 kg/h): 1 (25-49% control)
post-emergent herbicidal activity index (Quackgrass; 11.2 kg/h): 2 (50-74% control)
